{"source": "patent US20070082018A1", "about": "“Stabilized antimicrobial compositions and related methods of preparation” (priority 2005, published 2007)", "key": {"[1]": {"assay": "Solution turbidity (absorbance at 600 nm) and precipitation versus pH on NaOH titration", "type": "physicochemical", "details": "aqueous solutions, 5 wt % LAE, pH 2-13", "protocol": "The solution pH was increased stepwise by adding 0.5N NaOH and was recorded 2 min following each addition. It was plotted against the total amount of OH added for each of the solutions. Three minutes following each addition, a sub-sample was delivered via pipette into a cuvette for light absorption determination. […] However, this drastic change doesn't occur at the same hydroxide ions concentration for each of the different T20 concentrations. Indeed, it progressively shifts to the right of the graphic. Notice that beginning pH values are very close to each other for each solution. To the contrary, final pH values corresponding to the addition of 11 mmol OH^− are not the same and tend to decrease while the amount of T20 becomes higher. […]\npH would be expected to have an effect on precipitation as it affects the concentration of background ions H^+ and OH^− in the medium. […] It has been assumed that the initial rate of change in absorbance in the dispersions is a qualitative measure of the precipitation rate. […]\nSolution Turbidity. Absorbance of solutions adjusted to pH or containing salts was measured by spectroscopy at a wavelength of 600 nm using a UV-Visible spectrophotometer (Spectronic 21D, Milton Roy, Rochester, N.Y.). […] The change in the of absorbance of solutions was used as an indirect measure to formation of larger particles an/or aggregates."}, "Escherichia coli": {"system": "Escherichia coli", "details": "cited from earlier work"}, "Listeria monocytogenes": {"system": "Listeria monocytogenes", "details": "cited from earlier work"}, "[2]": {"assay": "Critical micelle concentration from surface tension (drop shape tensiometry)", "type": "physicochemical", "details": "for Critical micelle concentration (CMC): pure systems in water", "protocol": "The critical micelle concentration of the pure systems was determined by plotting surface tension values against the logarithm of the total surfactant concentration. In order to determine the values of the critical micelle concentration, two linear fits were used. The first line was fitted to interval of concentration characterized by linear decrease of the surface tension and the second one to the region of concentration with the nearly constant surface tension. The point in which the fitted lines cross corresponds to the value of the critical micelle concentration (CMC). Here, the CMC is reached at a Mirenat concentration 0.25% v/v. This corresponds to 1.65 mmol.L^−1 of lauric arginate, 4 times lower than the literature value. Accordingly, all experiments will be carried out at a concentration largely exceeding the found value: 5% v/v.\nMeasurement of Surface Tension. A drop shape analysis tensiometer (Model DSA-G10 MK2, Kruss USA, Charlotte, N.C.) was used to determine surface tension of surfactant solutions (20.0±0.5° C.). The tensiometer determines the shape of pendant drops or bubbles through numerical analysis of the entire drop shape. The calculation of the interfacial tension from the drop shape is based on the Young-Laplace equation of capillarity and a detailed description can be found elsewhere (Dukhin, Kretschmer et al. 1995). Surface tension measurements were carried out at 20.0±0.5 ° C. To ensure accurate temperature control, an air bubble was formed at the inverted tip of a syringe that was submerged in the surfactant solution contained in a thermostatted cuvette. The syringe/cuvette system was positioned on an optical bench between the light source and a high-speed CCD camera. […] Samples were assumed to be equilibrated (the equilibrium dynamic interfacial tension DITeq) when measured values of DITeq remained unchanged for 30 minutes. […] Solution were equilibrated to 20° C. in a waterbath and density measured using a digital density meter (DMA 35N, Anton Paar GmbH, Graz, Austria). […]"}, "[3]": {"assay": "Effect of salts on stability of surfactant solutions, visual observation of precipitation", "type": "physicochemical", "details": "aqueous solutions, 5 wt % LAE", "protocol": "Several experiments were conducted to examine the influence of salts on the stability of solutions containing Mirenat. The pH was not controlled here, as the buffer could mask the real behavior of the system. Still, it remained almost unchanged after the addition of salts. The added counterion (anion) contributed by the added electrolyte is assumed to be the same species as that contributed by the cationic surfactant, i.e. chloride ions Cl^−. Therefore, chloride salts, i.e. sodium chloride NaCl and calcium chloride CaCl2, were used. […] Precipitation occurred slowly, especially with low salt concentration where it could take up to 5 days. […] Almost every time precipitation took place, little or even no turbidity was noticeable. The results provided in Table 1 reflect qualitative visual observation.\nMaterials and Solution Preparation. Concentrated Mirenat®-N solution (25% lauric arginate, 75% PEG) was obtained from A&B Ingredients and used without further purification. Polyoxyethylene 20 sorbitan monolaureate (Tween 20), solvents (HCl, NaOH, purity >99%) and NaCl (>99%) was obtained from Sigma Chemical (St. Louis, Mo.). All solutions were prepared using doubles distilled and deionized water. Micellar solutions were prepared by gently mixing surfactants (Tween and LAE) at appropriate concentrations with double distilled water. As needed, pH was adjusted using HCl and NaOH."}}}
{"molecule": "CCCCCCCCCCCC(=O)N[C@@H](CCCNC(=N)N)C(=O)OCC.Cl", "note": "[LAE, ethyl-N^alpha-dodecanoyl-L-arginate hydrochloride]", "values": [{"measurement": "pH at which precipitates form", "setting": "[1]", "result": "> 4.1"}, {"measurement": "Minimum inhibitory concentration", "setting": "Escherichia coli", "result": "less than 10 ppm"}, {"measurement": "Minimum inhibitory concentration", "setting": "Listeria monocytogenes", "result": "less than 10 ppm"}, {"measurement": "Critical micelle concentration (CMC) as lauric arginate", "setting": "[2]; corresponds to Mirenat 0.25% v/v", "result": 1.65, "unit": "mmol/L"}, {"measurement": "Critical micelle concentration (CMC)", "setting": "[2]", "result": 0.25, "unit": "% v/v"}, {"measurement": "CaCl2 concentration at which precipitates form", "setting": "[3]", "result": "> 15", "unit": "g/L"}, {"measurement": "NaCl concentration at which precipitates form", "setting": "[3]", "result": "> 10", "unit": "g/L"}]}
{"molecule": "Polyoxyethylene 20 sorbitan monolaureate [T20]", "values": [{"measurement": "Critical micelle concentration (CMC)", "setting": "[2]", "result": 0.3, "unit": "% v/v"}]}
